Reference: patent US6469209B1, “Acrylate-type fungicide” (Dongbu Hannong Chemical Co., Ltd., priority 1999, dated 2002)
Like-named read-outs stand apart in the source and are kept apart here.

Experiments:
[1] = test system: Pyricularia oryzae Cavara KJ301 strain; format: in vivo; settings: sprayed on rice one day before inoculation
[2] = test system: Pyricularia oryzae Cavara KJ301 strain; format: in vivo; settings: 100 ppm, soil irrigation (10 mL) 24 hours before inoculation
[3] = test system: Pyricularia oryzae Cavara KJ301 strain; format: in vivo; settings: sprayed one day after inoculation
Venturia inaequalis = assay: Protective effect test on apple scab (APS); format: in vivo; settings: apple seedlings treated one day before inoculation
Bipolaris maydis = assay: Protective effect test on southern corn leaf blight (CLB); format: in vivo; settings: corn treated one day before inoculation
Method: A plant pathogen, Bipolaris maydis, was inoculated on the Difco Lima Bean Agar (10 g/L) medium containing 10 g/L dextrose, and incubated at 24° C. with and without fluorescent light for 12 hours each time for 7 days in a growth chamber. After forming spores, the conidiospore was harvested in Tween-20 solution (250 ppm), adjusted at the concentration of 5×10^5 spores/ml and used as inoculum. The southern corn (golden crossbantam 70) for test was grown to be at 4 or 5-leaf stage in a greenhouse. One day after the treating with the agricultural fungicidal compositions, the inoculum was sprayed an young seedlings of the corn, and incubated at 27° C. and 100% relative humidity for 24 hours in a dew chamber to infiltrate the pathogen. The young seedling were incubated at 27° C. and 90% relative humidity for 3 days in a growth chamber to induce the disease. A ratio of diseased areas to total areas of the corn leaves was examined according to the criteria for determining a degree of disease induction.
In the above experiment 2, control value of the compound on the tested pathogens was calculated according to the following mathematical formula 1, and the results were shown in Table 2. For only cucumber damping off, it was examined according to the above-mentioned separate criteria.
Control value(%)=(1—the ratio of diseased area in the treated plant/the ratio of diseased area in the untreated plant)×100

[4] = test system: Colletotrichum lagenarium; assay: Protective effect test on cucumber anthracnose (CUA); format: in vivo; settings: cucumber treated one day before inoculation
Botrytis cinerea = assay: Protective effect test on cucumber gray mould (CGM); format: in vivo
Rhizoctonia solani AG-1 = assay: Protective effect test on rice sheath blight (RSB); format: in vivo
Phytophthora infestans = format: in vivo; settings: sprayed on tomato one day before inoculation
Puccinia recondita [5] = assay: Protective effect test on wheat leaf rust (WLR); format: in vivo
[6] = test system: Erysiphe graminis f. sp. hordei; assay: Protective effect test on barley powdery mildew (BPM); format: in vivo
Pythium ultimum = assay: Protective effect test on cucumber damping off (CDO); format: in vivo; settings: soil irrigation (10 mL), disease index after 7 days
Method: The potato mixture was inoculated with a plant pat hogen causing cucumber damping off, Pythium ultimum, incubated at 25° C. for 15 days in a growth chamb e r and used as inoculum. Soil (150 mL) prepared by mixing vermiculite and field soil (1:1) was sterilized and mixed with the potato mixture (1 g) to use it as inoculum. After filling the inoculated soil in the pot (diameter 9 cm), five cucumber seeds (house Baekdadagio® cucumber) were sown in the above pot and irrigated with the agricultural fungicidal compositions (10 mL) prepared at the appropriate concentrations. Seven days after the treating with the agricultural fungicidal compositions, a degree of the disease induction was examined based upon criteria for determining the disease index, and control efficacy was determined according to the above examination. The criteria was listed in the following. Criteria 4: seeds don't germinate due to disease outbreak. 3: a young seedling dies in the middle of emergence. 2: ground surface is narrowed due to disease outbreak. 1: growth is poor due to disease outbreak of partial roots. 0: healthy plant […] For only cucumber damping off, it was examined according to the above-mentioned separate criteria.

Sphaerotheca fuliginea = assay: Protective effect test on cucumber powdery mildew (CPM); format: in vivo; settings: sprayed on cucumber one day before inoculation
Method: A plant pathogen, Sphaerotheca fuliginea, was prepared by collecting the diseased leaves of cucumber grown in a vinylhouse, and its spores were suspended in sterilized water. The concentration of the pathogenic spores was adjusted to 10^5 spores/mL and used as inoculum. After a cucumber seed (house ‘Baekdadagi®’ cucumber) was sown in a small pot (diameter 6.5 cm), it was grown in a greenhouse for two weeks and young seedlings with the first true completely open leaf were used for test. After the young seedlings of the cucumber in the small pots were sprayed with agricultural fungicidal compositions prepared at the appropriate concentrations, they were left for 1 day in a greenhouse to dry the fungicidal compositions. The young seedlings of cucumber were inoculated with the prepared pathogenic spores of cucumber powdery mildew by spraying and incubated for 10 days in a green house to induce the disease. A ratio of the diseased areas to total areas of the first true completely open leaves was determined according to the criteria for determining a degree of disease induction. […] For only cucumber damping off, it was examined according to the above-mentioned separate criteria.

Puccinia recondita [7] = assay: Systemic effect test on wheat leaf rust; format: in vivo
Puccinia recondita [8] = settings: in vivo
[9] = test system: Erysiphe graminis f. sp. hordei; assay: Systemic effect test on barley powdery mildew; format: in vivo; settings: soil irrigation (10 mL) 24 hours before inoculation
[10] = test system: Erysiphe graminis f. sp. hordei; settings: in vivo

Cc1cccc2sc3nncn3c12 [A, Tricyclazole]
Control value (%) RCB ([1]; 50 ppm): 90% | Control value (%) RCB S.E. (systemic effect) [2]: 87% | Control value (%) RCB C.E. (curative effect) ([3]; 100 ppm): 0%

Mancozeb [L, reference compound]
Control value (%) APS (Venturia inaequalis; 100 ppm): 82% | Control value (%) CLB (Bipolaris maydis; 100 ppm): 80% | Control value (%) CUA ([4]; 100 ppm): 85%

CC12CC1(C)C(=O)N(c1cc(Cl)cc(Cl)c1)C2=O (stereo not shown) [C, Procymidone, reference compound]
Control value (%) CGM (Botrytis cinerea; in vivo): 40%

CNC(=O)/C(=N/OC)c1c(C)cccc1COc1ccccc1C [The compound of formula 1, N-methyl E-2-((2-methylphenyl)oxymethyl)-6-methylphenylglyoxylamide O-methyl oxime]
Control value (%) RCB ([1]; 2 ppm): 100% | Control value (%) RCB ([1]; 10 ppm): 100% | Control value (%) RSB (Rhizoctonia solani AG-1; 2 ppm, sprayed on rice one day before inoculation): 21% | Control value (%) RSB (Rhizoctonia solani AG-1; 10 ppm, sprayed on rice one day before inoculation): 53% | Control value (%) CGM (Botrytis cinerea; 2 ppm, sprayed on cucumber one day before inoculation): 30% | Control value (%) CGM (Botrytis cinerea; 10 ppm, sprayed on cucumber one day before inoculation): 40% | Control value (%) TLB (Phytophthora infestans; 2 ppm): 79% | Control value (%) TLB (Phytophthora infestans; 10 ppm): 89% | Control value (%) WLR (Puccinia recondita [5]; 2 ppm, sprayed on wheat one day before inoculation): 99% | Control value (%) WLR (Puccinia recondita [5]; 10 ppm, sprayed on wheat one day before inoculation): 100% | Control value (%) BPM ([6]; 2 ppm, sprayed on barley one day before inoculation): 98% | Control value (%) BPM ([6]; 10 ppm, sprayed on barley one day before inoculation): 100% | Control value (%) CDO (Pythium ultimum; 1 ppm): 30% | Control value (%) CDO (Pythium ultimum; 10 ppm): 100% | Control value (%) CDO (Pythium ultimum; 100 ppm): 100% | Control value (%) CPM (Sphaerotheca fuliginea; 1 ppm): 80% | Control value (%) CPM (Sphaerotheca fuliginea; 10 ppm): 100% | Control value (%) CPM (Sphaerotheca fuliginea; 100 ppm): 100% | Control value (%) APS (Venturia inaequalis; 1 ppm): 60% | Control value (%) APS (Venturia inaequalis; 10 ppm): 92% | Control value (%) APS (Venturia inaequalis; 100 ppm): 100% | Control value (%) CLB (Bipolaris maydis; 10 ppm): 80% | Control value (%) CLB (Bipolaris maydis; 100 ppm): 90% | Control value (%) CUA ([4]; 1 ppm): 80% | Control value (%) CUA ([4]; 10 ppm): 100% | Control value (%) CUA ([4]; 100 ppm): 100% | Control value (%) RCB S.E. (systemic effect) [2]: 56% | Control value (%) RCB C.E. (curative effect) ([3]; 10 ppm): 84% | Control value (%) WLB S.E. (systemic effect) (Puccinia recondita [7]; 2 ppm, soil irrigation (10 mL) 24 hours before inoculation): 43% | Control value (%) WLB S.E. (systemic effect) (Puccinia recondita [7]; 10 ppm, soil irrigation (10 mL) 24 hours before inoculation): 100% | Control value (%) WLB S.E. (systemic effect) (Puccinia recondita [7]; 100 ppm, soil irrigation (10 mL) 24 hours before inoculation): 100% | Control value (%) WLB C.E. (curative effect) (Puccinia recondita [8]): 100% | Control value (%) BPM S.E. (systemic effect) ([9]; 2 ppm): 67% | Control value (%) BPM S.E. (systemic effect) ([9]; 10 ppm): 80% | Control value (%) BPM S.E. (systemic effect) ([9]; 100 ppm): 100% | Control value (%) BPM C.E. (curative effect) [10]: 100%

CO/N=C(/C(=O)OC)c1ccccc1COc1ccccc1C [F, Kresoxim methyl, reference compound]
Control value (%) RCB ([1]; 10 ppm): 98% | Control value (%) RSB (Rhizoctonia solani AG-1; in vivo): 5% | Control value (%) CGM (Botrytis cinerea; in vivo): 10% | Control value (%) TLB (Phytophthora infestans; 10 ppm): 57% | Control value (%) WLR (Puccinia recondita [5]; in vivo): 93% | Control value (%) BPM ([6]; in vivo): 94% | Control value (%) RCB S.E. (systemic effect) [2]: 0% | Control value (%) RCB C.E. (curative effect) ([3]; 10 ppm): 39% | Control value (%) WLB S.E. (systemic effect) (Puccinia recondita [7]; in vivo): 0% | Control value (%) WLB C.E. (curative effect) (Puccinia recondita [8]): 0% | Control value (%) BPM C.E. (curative effect) [10]: 50%

COc1ccc(C(=CC(=O)N2CCOCC2)c2ccc(Cl)cc2)cc1OC [D, Dimethomotph, reference compound]
Control value (%) TLB (Phytophthora infestans; 10 ppm): 80%

C[Si](Cn1cncn1)(c1ccc(F)cc1)c1ccc(F)cc1 [E, Flusilazole, reference compound]
Control value (%) WLR (Puccinia recondita [5]; in vivo): 85% | Control value (%) BPM ([6]; in vivo): 85% | Control value (%) WLB C.E. (curative effect) (Puccinia recondita [8]): 97% | Control value (%) BPM C.E. (curative effect) [10]: 81%

CCCCNC(=O)n1c(NC(=O)OC)nc2ccccc21 [K, Benomyl, reference compound]
Control value (%) CDO (Pythium ultimum; 10 ppm): 20% | Control value (%) CPM (Sphaerotheca fuliginea; 10 ppm): 85% | Control value (%) APS (Venturia inaequalis; 10 ppm): 85% | Control value (%) CUA ([4]; 10 ppm): 65%

OCC1=C[C@H](N[C@H]2C[C@H](CO)[C@@H](O[C@@H]3O[C@H](CO)[C@@H](O)[C@H](O)[C@H]3O)[C@H](O)[C@H]2O)[C@H](O)[C@@H](O)[C@@H]1O [B, Validamycin, reference compound]
Control value (%) RSB (Rhizoctonia solani AG-1; in vivo): 50%
